# Results: article PMC11656837, “pH-Responsive Peptide Nanoparticles Deliver Macromolecules to Cells via Endosomal Membrane Nanoporation” (ACS Nano, 2024)
# Tested on: HeLa cells
# Assay: Cytosolic delivery of AF488-dextran 10 kDa (confocal microscopy)
# Format: cell-based, human
# Protocol: Just before imaging, cell nuclei were stained with Hoechst 33342 (blue); the external AF488-dextran was washed away, and AF647-dextran (lavender) was added to mark the extracellular spaces and cell boundaries. […] Individual intensity scans across single cells, indicated by the yellow arrows, are plotted in Figure 5E,F as examples. To measure cytosolic dextran concentrations, dextran intensity was measured in the external spaces, where it is at background levels and in puncta-free, nuclear/cytosolic areas of each cell.
# These experiments were done using a very low solution concentration of 0.1 μM AF488-dextran 10 kDa to minimize any possible self-quenching in endosomes and to minimize any osmotic effect of the dextran on endosomal stability. […] Before imaging, the AF488-dextran was washed off, and Cascade Blue dextran 10 kDa was added to mark the external spaces and cell boundaries. […] Dextran delivered to the cytosol and nucleus, which was the only intensity that we measured in Figure 6A,B, was identified by its diffuse and uniform intensity in the nucleus and cytosol of each cell. In Figure 6E, cytosolic and nuclear concentrations of dextran are expressed as a percent of the external concentration incubated with cells based on comparison to a standard curve of fluorescence intensity versus concentration that was measured separately at the same instrument settings.
# After overnight incubation, external AF488-dextran (green) was washed off and replaced with Cascade Blue dextran (blue) or AF647-dextran (lavender) just before imaging to mark the external spaces and cell boundaries. Cells were also treated with Hoechst 33342 (blue) to stain the nuclei. Quantitation was performed by generating a standard curve from microscopy images of solutions of AF488-dextran of known concentrations. For quantification, we noted the intensity of the cell nuclei. Multiple small circular areas of interest of a preset size were selected in cells in areas that were in the nucleus or had no obvious puncta. The same was done for the standard curve images. The fluorescence of each point of interest was quantified using the Nikon Elements software, and the concentration was determined using a standard curve and expressed as a percent of the initial incubating concentration.
smiles,measurement,setting,value
CCCCCCCCCCCCCCCC(=O)NCC(=O)N[C@@H](C(=O)NCC(=O)N[C@H](CCC(=O)O)C(=O)N[C@@H](C(=O)N[C@H](CC(C)C)C(=O)N[C@H](Cc1c[nH]cn1)C(=O)N[C@H](CCC(=O)O)C(=O)N[C@H](CC(C)C)C(=O)N[C@H](C)C(=O)N[C@H](CCC(=O)O)C(=O)NCC(=O)N[C@H](CC(C)C)C(=O)N1CCC[C@@H]1C(=O)N[C@H](CCC(=O)O)C(=O)N[C@H](CC(C)C)C(=O)N[C@H](CCC(N)=O)C(=O)N[C@H](CCC(=O)O)C(=O)N[C@H](Cc1c[nH]c2ccccc12)C(=O)N[C@@H](C(=O)N[C@H](Cc1c[nH]cn1)C(=O)N[C@H](C)C(=O)N[C@H](C)C(=O)N[C@H](CCC(N)=O)C(=O)N[C@H](CCC(N)=O)C(=O)N[C@H](CC(C)C)C(N)=O)[C@H](C)CC)C(C)C)[C@H](C)CC [C16-D-pHD108],cytosolic dextran concentration,"3 μM peptide, 0.1 μM AF488-dextran 10 kDa, overnight, 37 °C",Low but statistically significant
same,"cytosolic dextran concentration, average, percent of applied external concentration","25 μM peptide, 0.1 μM AF488-dextran 10 kDa, overnight, 37 °C, ~50 cells",about 12%
same,dextran staining of nucleus and cytosol,"25 μM peptide, 25 μM AF488-dextran 10 kDa, overnight, 37 °C",diffusely and uniformly stained with dextran
same,delivery of dextran to the cytosol at 4 °C,"25 μM peptide, 4 °C",does not enable any measurable delivery of dextran to the cytosol
same,plasma membrane permeabilization (entry of Cascade Blue dextran added before imaging),"25 μM peptide, 37 °C",not permeabilized
same,"cytosolic delivery of AF488-dextran, C16-L-pHD108 compared with C16-D-pHD108","HeLa, overnight, 37 °C",significantly more active
